Test results reported in PMC11436104 (Toxins, 2024).
Where “and” joins values, the source holds several entries; their conditions need not be identical. Equal entries are not always repeated. Where two headings read alike, the source gives them in different places. *1 amine or outer side, *2 acyl side, *3 side chain or, on linkers, in order; H or OH if unused. Where a SMILES comes first, the peptide text is derived from it. Bridges are numbered along the chain shown (N, C = ends). [ ]: non-standard residue; d: D form. Adda = CO[C@@H](Cc1ccccc1)[C@@H](C)/C=C(C)/C=C/[C@H](N[*:1])[C@H](C)C(=O)[*:2]; dAsp(3S-Me) = C[C@H](C(=O)[*:3])[C@@H](N[*:1])C(=O)[*:2]; d(γGlu) = O=C(O)[C@@H](CCC(=O)[*:2])N[*:1]; hTyr = N[C@@H](CCc1ccc(O)cc1)C(=O)O; NMeA = CN[C@@H](C)C(=O)O; NMeDha = C=C(NC)C(=O)O; CO = O=C([*:1])[*:2]

How the values were obtained:
[1] = molecular target: T1, Ser/Thr protein phosphatase type-2A (PP2A) (Bos taurus, UniProt P67774); experiment: Colorimetric protein phosphatase inhibition assay, p-nitrophenyl phosphate substrate; format: biochemical, bovine
T1 construct: PP2A; from bovine kidney; purchased Sigma P1868; host or cells: bovine kidney (tissue-purified)
T1 sequence (P67774 whole entry): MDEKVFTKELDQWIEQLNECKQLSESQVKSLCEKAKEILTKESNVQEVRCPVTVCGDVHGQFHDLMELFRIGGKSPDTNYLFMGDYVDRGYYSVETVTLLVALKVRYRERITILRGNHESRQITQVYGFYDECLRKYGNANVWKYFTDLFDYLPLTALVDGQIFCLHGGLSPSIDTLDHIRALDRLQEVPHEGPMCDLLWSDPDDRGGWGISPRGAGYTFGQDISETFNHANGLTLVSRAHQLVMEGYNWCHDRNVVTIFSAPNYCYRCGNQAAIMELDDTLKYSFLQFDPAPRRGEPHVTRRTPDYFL
Experimental: The inhibition of Ser/Thr protein phosphatases by the CCPs was measured using the colorimetric inhibition assay described by An and Carmichael and Gkelis et al., with some modifications. […] Enzymes, PP1 and PP2A, were diluted in reaction buffer #1 (50 mM Tris-HCl, 1.0 g/L bovine serum albumin, 1.0 mM MnCl2, 2.0 mM dithiothreitol, pH 7.4), and p-nitrophenyl phosphate was prepared in substrate buffer (0.1 M glycine, pH 10.4, 1 mM MgCl2, 1 mM ZnCl2). The assay was performed by the addition of each CCP (as a potential inhibitor; final concentrations, 0.1, 1, 10, and 100 µM) to the enzyme solution (i.e., PP1 and PP2A; final concentrations, 1 U/well and 0.01 U/well, respectively, where 1 U hydrolyzes 1 nmole of substrate per minute at pH 7.4 at 30 °C). After a few seconds of gentle shaking, the microplate was kept at room temperature for 5 min, followed by the addition of reaction buffer #2 (50 mM Tris-HCl, 0.5 g/L bovine serum albumin, 0.2 mM MnCl2, 20 mM MgCl2, and pH 8.1) for PP1, or reaction buffer #1 for PP2A. The reactions were started by the addition of p-nitrophenyl phosphate (final concentrations, 15 mM for PP1 and 10 mM for PP2A) and were carried out for 120 min at 37 °C. The hydrolysis of p-nitrophenyl phosphate to […] was recorded at 405 nm using a microplate reader (Tecan, Austria). The inhibition percentages (X) were calculated from the absorbances of the samples after incubation for 30 min, as according to Equation (1):X (%) = (APP − AS)/APP × 100,(1) where APP is the absorbance of the control sample (i.e., enzyme only), and AS is the absorbance of the test sample (i.e., enzyme with potential inhibitor). […] All measurements were repeated a minimum of three independent times, with five technical replicates per experiment. IC50 values are expressed as means ± SD.

ACTB [2] = experiment: Gene expression by quantitative real-time PCR in NHA; format: cell-based, human
Experimental: (§1) Cells were seeded onto 6-well plates, left to attach for 16 h, and treated with each non-hCCP separately (0.1–10 µM) and the hepatotoxic MC-LR (0.01–1 µM) for 24 h at 37 °C in the CO2 incubator. The total RNA from the cells (0.5–1.0 × 10^6 cells) was isolated using the TRIzol reagent (Invitrogen), and the cDNA was synthesized using 1 μg total RNA with cDNA high-capacity archive kits (Applied Biosystems, Foster City, CA, USA), according to the manufacturer’s protocol.
(§2) The expression levels of TUBA1A, ACTB, NES, and GFAP were quantified using quantitative real-time PCR (ABI 7900 HT Sequence Detection System; Applied Biosystems). TaqMan Universal PCR Master Mix and the following TaqMan Gene Expression Assays were used: TUBA1A: tubulin, alpha 1a, Hs00362387_m1; ACTB: actin, beta, Hs99999903_m1; NES, nestin, Hs00707120_s1; and GFAP, glial fibrillary acidic protein, and Hs00157674_m1 (all from Applied Biosystems). Amplification of a glyceraldehyde 3-phosphate dehydrogenase probe GAPDH (Human Endogenous Controls, Cat. # 4310884E; Applied Biosystems) was performed as an internal control. The conditions for the quantitative real-time PCR were as follows: 50 °C for 2 min, 95 °C for 10 min, 40 cycles of 95 °C for 15 s, and 60 °C for 1 min.
(§3) The data obtained from the TaqMan Gene Expression Assays were analyzed using the ΔΔCt algorithm. Two replicates per concentration and three independent experiments were performed. The statistical significance between the controls and the treated groups was determined using two-tailed Student’s t-tests, where p < 0.05 was statistically significant. In addition, the relative expression was normalized to the housekeeping gene GAPDH (relative quantification), with at least three sample concentrations used for each gene in both untreated cell lines.

GFAP [3] = experiment: as above; format: cell-based, human
Experimental: as §1, §2, §3

NES [4] = experiment: as above; format: cell-based, human
Experimental: as §1, §2, §3

TUBA1A [5] = experiment: as above; format: cell-based, human
Experimental: as §1, §2, §3

ACTB [6] = experiment: Gene expression by quantitative real-time PCR in U-87MG cells; format: cell-based, human; conditions: 24 h, relative to non-treated control
Experimental: as §1, §2, §3

GFAP [7] = experiment: as above; format: cell-based, human; conditions: 24 h, relative to non-treated control
Experimental: as §1, §2, §3

NES [8] = experiment: as above; format: cell-based, human
Experimental: as §1, §2, §3

TUBA1A [9] = experiment: as above; format: cell-based, human
Experimental: as §1, §2, §3

[10] = means ± SD, p-nitrophenyl phosphate 10 mM
[11] = NHA, 0.1 µM CCP, 24 h, relative to non-treated control
[12] = NHA, 1 µM CCP, 24 h, relative to non-treated control
[13] = NHA, 10 µM CCP, 24 h, relative to non-treated control
[14] = U-87MG, 0.1 µM CCP, 24 h, relative to non-treated control
[15] = U-87MG, 1 µM CCP, 24 h, relative to non-treated control
[16] = U-87MG, 10 µM CCP, 24 h, relative to non-treated control

| SMILES | IC50 [1, 10] | Changes in gene expression of ACTB (ACTB [2]; [11]) | Changes in gene expression of ACTB (ACTB [2]; [12]) | Changes in gene expression of ACTB (ACTB [2]; [13]) | Changes in gene expression of GFAP (GFAP [3]; [11]) | Changes in gene expression of GFAP (GFAP [3]; [12]) | Changes in gene expression of GFAP (GFAP [3]; [13]) | Changes in gene expression of NES (NES [4]; [11]) | Changes in gene expression of NES (NES [4]; [12]) | Changes in gene expression of NES (NES [4]; [13]) | Changes in gene expression of TUBA1A (TUBA1A [5]; [11]) | Changes in gene expression of TUBA1A (TUBA1A [5]; [12]) | Changes in gene expression of TUBA1A (TUBA1A [5]; [13]) | Changes in gene expression of ACTB (ACTB [6]; 0.1 µM CCP) | Changes in gene expression of ACTB (ACTB [6]; 1 µM CCP) | Changes in gene expression of ACTB (ACTB [6]; 10 µM CCP) | Changes in gene expression of GFAP (GFAP [7]; 0.1 µM CCP) | Changes in gene expression of GFAP (GFAP [7]; 10 µM CCP) | Changes in gene expression of NES (NES [8]; [14]) | Changes in gene expression of NES (NES [8]; [15]) | other results |
| --- | --- | --- | --- | --- | --- | --- | --- | --- | --- | --- | --- | --- | --- | --- | --- | --- | --- | --- | --- | --- | --- |
| CC[C@H](C)[C@@H]1NC(=O)[C@H](Cc2ccc(OC)cc2)N(C)C(=O)[C@H]([C@@H](C)O)N2C(=O)[C@H](CC[C@H]2O)NC(=O)[C@H](CC(C)C)NC(=O)[C@@H](NC(=O)[C@H](CCC(N)=O)NC(=O)[C@H](CCc2ccc(O)cc2)NC(=O)[C@@H](O)CO)[C@@H](C)OC1=O | 18.2 ± 15.7 µM | 0.949 ± 0.140 | 0.988 ± 0.147 | 1.162 ± 0.251 | 1.051 ± 0.351 | 0.947 ± 0.101 | 1.119 ± 0.240 | 1.262 ± 0.077 | 1.203 ± 0.196 | 1.370 ± 0.208 | 0.940 ± 0.162 | 0.824 ± 0.128 | 1.000 ± 0.141 | 1.015 ± 0.057 | 1.051 ± 0.185 | 1.147 ± 0.105 | 1.107 ± 0.214 | 1.016 ± 0.046 | 1.003 ± 0.164 | 1.069 ± 0.105 | Changes in gene expression of GFAP (GFAP [7]; 1 µM CCP): 1.283 ± 0.185; Changes in gene expression of NES (NES [8]; [16]): 1.240 ± 0.041; Changes in gene expression of TUBA1A (TUBA1A [9]; [14]): 1.124 ± 0.050; Changes in gene expression of TUBA1A (TUBA1A [9]; [15]): 1.094 ± 0.172; Changes in gene expression of TUBA1A (TUBA1A [9]; [16]): 1.171 ± 0.049 |
| CC[C@H](C)[C@@H]1NC(=O)[C@H](NC(=O)N[C@@H](CCCNC(=N)N)C(=O)O)CCCCNC(=O)[C@H](Cc2ccccc2)NC(=O)[C@H](C)N(C)C(=O)[C@H](CCc2ccc(O)cc2)NC1=O [anabaenopeptin F] ({Arg-CO}-[dK]I[hTyr][NMeA]F; lactam 1-C) | 1 ± 0.2 µM | 0.824 ± 0.227 | 1.121 ± 0.167 | 0.890 ± 0.184 | 1.326 ± 0.507 | 0.846 ± 0.211 | 1.167 ± 0.250 | 1.345 ± 0.205 | 1.449 ± 0.171 | 1.381 ± 0.173 | 0.941 ± 0.186 | 1.144 ± 0.291 | 0.826 ± 0.036 | 0.935 ± 0.118 | 1.084 ± 0.138 | 1.046 ± 0.130 | 1.002 ± 0.087 | 1.191 ± 0.435 | 1.040 ± 0.105 | 1.081 ± 0.056 | Changes in gene expression of GFAP (GFAP [7]; 1 µM CCP): 1.096 ± 0.211; Changes in gene expression of NES (NES [8]; [16]): 0.886 ± 0.037; Changes in gene expression of TUBA1A (TUBA1A [9]; [14]): 1.016 ± 0.098; Changes in gene expression of TUBA1A (TUBA1A [9]; [15]): 1.023 ± 0.160; Changes in gene expression of TUBA1A (TUBA1A [9]; [16]): 1.354 ± 0.126 |
| C=C1C(=O)N[C@H](C)C(=O)N[C@@H](CC(C)C)C(=O)N[C@@H](C(=O)O)[C@H](C)C(=O)N[C@@H](CCCNC(=N)N)C(=O)N[C@@H](/C=C/C(C)=C/[C@H](C)[C@H](Cc2ccccc2)OC)[C@H](C)C(=O)N[C@@H](C(=O)O)CCC(=O)N1C [MC-LR, Microcystin-LR, reference compound] (R[Adda][d(γGlu)][NMeDha][dA]L[dAsp(3S-Me)]-OH; lactam N-7) |  |  |  |  |  |  |  |  |  |  |  |  |  |  |  |  |  |  |  |  | IC50 [1]: 4.8e-05 ± 1e-05 µM; Changes in gene expression of ACTB (ACTB [2]): 1.866 ± 0.844 and 1.071 ± 0.437; Changes in gene expression of GFAP (GFAP [3]): 1.395 ± 0.312 and 1.453 ± 0.279; Changes in gene expression of NES (NES [4]): 0.917 ± 0.067 and 1.266 ± 0.250; Changes in gene expression of TUBA1A (TUBA1A [5]): 0.957 ± 0.046 and 0.941 ± 0.025; Changes in gene expression of NES (NES [8]): 1.030 ± 0.105 and 0.877 ± 0.148; Changes in gene expression of TUBA1A (TUBA1A [9]): 1.031 ± 0.064 and 0.983 ± 0.099 |
| CC(C)[C@@H]1NC(=O)[C@H](NC(=O)N[C@@H](CCCNC(=N)N)C(=O)O)CCCCNC(=O)[C@H](Cc2ccccc2)NC(=O)[C@H](C)N(C)C(=O)[C@H](CCc2ccc(O)cc2)NC1=O [anabaenopeptin B] ({Arg-CO}-[dK]V[hTyr][NMeA]F; lactam 1-C) | 12.3 ± 6.1 µM | 1.175 ± 0.386 | 0.935 ± 0.157 | 0.934 ± 0.166 | 1.053 ± 0.124 | 1.434 ± 0.180 | 0.918 ± 0.204 | 1.361 ± 0.291 | 1.221 ± 0.338 | 1.388 ± 0.313 | 1.082 ± 0.219 | 0.807 ± 0.100 | 0.895 ± 0.119 | 0.998 ± 0.070 | 1.039 ± 0.070 | 1.122 ± 0.033 | 1.088 ± 0.390 | 1.175 ± 0.148 | 0.948 ± 0.143 | 0.992 ± 0.085 | Changes in gene expression of NES (NES [8]; [16]): 0.931 ± 0.054; Changes in gene expression of TUBA1A (TUBA1A [9]; [14]): 1.131 ± 0.031; Changes in gene expression of TUBA1A (TUBA1A [9]; [15]): 1.098 ± 0.192; Changes in gene expression of TUBA1A (TUBA1A [9]; [16]): 1.429 ± 0.068 |
